For series [1], the target named is hERG potassium channel (Homo sapiens, UniProt Q12809). The series can be described thus: hERG screening assay (PatchXpress, CHO cells). The conditions noted are these: % inhibition at 1 μM. It is filed as cell-based. The method, then: Compounds were also tested for their effect to block the hERG K^+ channel.
Compounds were screened to test their activity in blocking the hERG potassium channel at AVIVA Biosciences (San Deigo, Calif., USA). The hERG channel is heterologously expressed in a CHO (Chinese Hamster Ovary) cell line. Cells were maintained with standard tissue culture procedures and stable channel expression was maintained with 500 μg/mL G418 in the culture medium. Cells were harvested for testing on the PatchXpress 7000A automated patch clamp with Accumax (Innovative Cell Technologies, San Diego, Calif.) to isolate single cells.
The following solutions were used for electrophysiological recordings. The external solution contained: 2 mM CaCl2; 2 mM MgCl2; 4 mM KCl; 150 mM NaCl; 10 mM Glucose; 10 mM HEPES (pH 7.4 with 1M NaOH; osmolarity, ˜310 mOsm). The internal solution contained: 140 mM KCl, 10 mM MgCl2, 6 mM EGTA, 5 mM HEPES, 5 mM ATP (pH adjusted to 7.25 with KOH; osmolarity, ˜295 mOsm).
hERG channels were activated when the voltage was first stepped to −50 mV for 300 ms from the −80 mV holding potential and then stepped to +20 mV for 5 seconds. At +20 mV the channels open and then largely inactivate, so the currents are relatively small. Upon returning to −50 mV from +20 mV, hERG currents transiently become much larger as inactivation is rapidly removed and then the channel closes. The first step to −50 mV for 300 ms was used as a baseline for measuring the peak amplitude during the step to −50 mV after channel activation. The peak tail current at −50 mV was measured both under control conditions and after addition of compound, each cell serving as its own control.
All compounds were prepared as 10 mM DMSO stocks in glass vials. Stock solutions were mixed by vigorous vortexing and sonication for about 2 minutes at room temperature. For testing, compounds were diluted in glass vials using an intermediate dilution step in pure DMSO and then further diluted to working concentrations in external solution. Dilutions were prepared no longer than 20 minutes before use.
For the electrophysiological recordings, after achieving the whole-cell configuration, cells were monitored for 90 seconds to assess stability and washed with external solution for 66 seconds. The voltage protocol described above was then applied to the cells every 12 seconds and throughout the whole procedure. Only cells with stable recording parameters and meeting specified health criteria were allowed to enter the compound addition procedure.
External solution containing 0.1% DMSO (vehicle) was applied to the cells first to establish the control peak current amplitude. After allowing the current to stabilize for 3 to 5 minutes, 1 μM and then 10 μM test compounds were applied. Each compound concentration was added 4 times and cells were kept in test solution until the effect of the compound reached steady state or for a maximum of 12 minutes. After addition of test compound, a positive control (1 μM Cisapride) was added and must block >95% of the current for the experiment to be considered valid. Washout in the external solution compartment was performed until the recovery of the current reached steady state.

Series [2] can be described thus: Microsomal stability assay, dog. It is filed as in vitro ADME. To be noted: metabolic stability, dog liver microsomes 0.5 mg/mL, substrate 3 uM. The method in brief: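 Liver microsomes at 0.5 mg/mL protein in 100 mM KPO4 buffer, incubated with 3 uM compound and NADPH-regenerating system, run in duplicate. Samples taken at 2, 12, 25, 45 and 65 min and quenched in MeOH/ACN/water before analysis.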

Chain of hERG potassium channel (Q12809 whole entry): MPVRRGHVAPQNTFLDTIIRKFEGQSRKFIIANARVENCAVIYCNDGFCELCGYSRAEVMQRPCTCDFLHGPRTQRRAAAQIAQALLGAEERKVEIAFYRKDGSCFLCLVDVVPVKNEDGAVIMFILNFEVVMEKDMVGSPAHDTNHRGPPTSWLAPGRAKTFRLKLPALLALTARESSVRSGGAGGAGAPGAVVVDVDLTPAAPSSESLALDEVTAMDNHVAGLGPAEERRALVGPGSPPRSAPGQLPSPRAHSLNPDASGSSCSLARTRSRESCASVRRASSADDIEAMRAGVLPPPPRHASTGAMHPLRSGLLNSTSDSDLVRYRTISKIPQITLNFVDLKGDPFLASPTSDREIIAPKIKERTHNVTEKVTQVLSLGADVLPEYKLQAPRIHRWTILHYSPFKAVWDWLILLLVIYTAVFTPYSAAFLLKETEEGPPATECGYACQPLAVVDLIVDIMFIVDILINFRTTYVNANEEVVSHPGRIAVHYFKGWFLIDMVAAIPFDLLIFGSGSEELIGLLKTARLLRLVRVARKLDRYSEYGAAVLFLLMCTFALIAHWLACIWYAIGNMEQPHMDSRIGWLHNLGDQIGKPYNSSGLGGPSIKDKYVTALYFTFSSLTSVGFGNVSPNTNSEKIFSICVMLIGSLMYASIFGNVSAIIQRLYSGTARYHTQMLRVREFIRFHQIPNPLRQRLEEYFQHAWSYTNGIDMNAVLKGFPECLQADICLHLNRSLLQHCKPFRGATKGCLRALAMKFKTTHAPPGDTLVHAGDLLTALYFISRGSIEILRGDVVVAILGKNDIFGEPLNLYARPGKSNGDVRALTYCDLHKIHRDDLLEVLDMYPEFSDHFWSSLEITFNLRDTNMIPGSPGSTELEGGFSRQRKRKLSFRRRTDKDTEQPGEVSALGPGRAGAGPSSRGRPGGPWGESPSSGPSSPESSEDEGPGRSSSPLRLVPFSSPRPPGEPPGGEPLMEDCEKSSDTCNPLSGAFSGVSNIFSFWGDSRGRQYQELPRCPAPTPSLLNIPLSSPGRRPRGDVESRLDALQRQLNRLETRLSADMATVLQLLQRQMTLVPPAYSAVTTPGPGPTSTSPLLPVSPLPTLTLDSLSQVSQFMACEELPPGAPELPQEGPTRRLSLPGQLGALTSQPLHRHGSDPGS

For the molecule `CC1Oc2ccc(-c3ccc(OC(F)(F)F)cc3)cc2C(=O)N1Cc1ncccn1` (centres unmarked) [VIII-7, 2-methyl-3-(pyrimidin-2-ylmethyl)-6-(4-(trifluoromethoxy)phenyl)-2H-benzo[e][1,3]oxazin-4(3H)-one], in series [1], the “HERG*” value was under 10%. This molecule also gave an MS Dog THalf in series [2] of 392 min.

These data come from patent US20150329558A1, “FUSED HETEROCYCLIC COMPOUNDS AS ION CHANNEL MODULATORS” (Gilead Sciences, Inc., priority 2011, published 2015).
